# How the values were obtained:
# [1] = system: CL/DOPC liposomes (cardiolipin); test: 1H NMR interaction study with CL-containing liposomes; format: binding; settings: 0.4 mM 6, 1.2 mM DOPC, 0.4 mM CL, 25 °C
# Procedure: Cardiolipin (CL) liposomes for NMR analysis were prepared by the thin-film method followed by sonication and extrusion. […] The obtained lipid thin film was dried in vacuo overnight. Then, the dry lipid film was rehydrated in D18 HEPES buffer (20 mM, pH 7.4, 10% D2O) and gently vortexed, and the samples were sonicated for 30 min in a bath-type sonicator. The obtained sample of liposomes was extruded 21 times through a 100-nm pore polycarbonate filter (Nucleopore Corp., CA). Similarly, liposomes from DOPC only were prepared.
# To study the interactions of compound 6 with CL and DOPC liposomes, a stock solution of 6 (2 mM) in D18 HEPES buffer (20 mM, pH 7.4, 10% D2O) was added to CL/DOPC or DOPC liposome dispersions to reach 400:1200:400 µM CL/DOPC/6 solution or 1600:400 µM DOPC/6 solution followed by gentle vortexing for 30 s.
# NMR spectra were acquired on a 600‐MHz Bruker Avance NEO spectrometer equipped with a 5 mm QCI-F quadruple resonance pulsed‐field‐gradient cryoprobe. The temperature was calibrated against methanol and set to 25 °C. Chemical shifts were referenced to the water resonance at 4.77 ppm with respect to 4,4-dimethyl-4-silapentane-1-sulfonic acid (DSS). The samples contained […] 6 in 90% H2O and 10% D2O with and without DOPC or CL/DOPC liposomes. The NMR data were processed and analyzed using MestReNova software.
# 4T1 = test: Cytotoxicity assay (MTT), 4T1; format: cell-based, mouse; settings: Mus musculus, 4T1; breast cancer cell line; MTT, 48 h; mean ± S.D., 3 experiments; read-out: Cytotoxicity, IC50, 4T1
# Procedure: (§1) MCF-7 (human breast adenocarcinoma, estrogen-positive) and 4T1 (mouse carcinoma), as breast cancer cell lines, and H9C2 (rat cardiomyoblasts), NIH 3T3 (mouse fibroblasts), HEKa (primary human epidermal keratinocytes), MDCK (Madin-Darby Canine Kidney) cells, and A7r5 (rat vascular smooth muscle cells), as normal cell lines, were obtained from the American Type Culture Collection [ATCC] collection for use in the current study. All cell lines were cultured in Dulbecco's modified Eagle's medium (DMEM) containing 10% fetal bovine serum (FBS) and 4 mM L-glutamine at 37 °C and 5% CO2.
# (§2) Cell viability was assessed by the addition of 3-(4,5-dimethylthiazol-2-yl)-2,5-diphenyltetrazolinium bromide (MTT). Briefly, cells were seeded (2–6 × 10^4 cells/ml) in 96-well plates and allowed to attach for 24 h. Solutions of test compounds were prepared and serially diluted to obtain the appropriate concentrations. The cells were treated with the test compounds at different concentrations (0.032–100 µM) and incubated for 48 h at 37 °C and 5% CO2. Then, the culture medium was removed, and medium containing 0.2 mg/ml MTT was added. After 3 h (37 °C, 5% CO2), the MTT-containing medium was removed, and 200 μl of dimethyl sulfoxide (DMSO) was immediately added to each sample. The absorbance was assessed at 540 nm using a Tecan multiplate reader Infinite 1000 (Austria). The half-maximal inhibitory concentration (IC50) of each compound was calculated using Graph Pad Prism 3.0.
# [2] = system: CL/DOPC (1:3) vesicles (cardiolipin); test: Isothermal titration calorimetry with CL/DOPC liposomes; format: binding; settings: 25 °C
# Procedure: (§3) The obtained large multilamellar liposomes were sonicated in a bath-type sonicator (Cole Parmer Ultrasonic Cleaner 8891CPX (USA)) at room temperature for 30 min and then extruded (LiposoFast-Basic, Avestin) through a 100 nm polycarbonate filter 21 times. The quality of the resulting small unilamellar vesicles was determined by dynamic light scattering (DLS) (Zetasizer Nano ZSP, Malvern Panalytical Ltd., UK).
# (§4) The experiments were carried out using an isothermal titration calorimeter (MicroCal iTC200, Malvern Panalytical Ltd., UK). To carry out the titration, the injection syringe was filled with a solution of compound 6 (100 µM), and the reaction cell was filled with liposome dispersion (200 µM of total lipid). The experiments were performed at 25 and 37 °C with a stirring speed of 750 rpm. […] The data consisted of a series of heat flows as a function of time, which were collected automatically and analyzed by Origin 7 software (OriginLab Corporation, Northampton, USA, www.originlab.com, 2002). The changes in enthalpy (ΔH) due to the interactions between 6 and the liposome dispersions were recorded, and then stoichiometry (N), the association constant (KA), the dissociation constant (KD), entropy (ΔS) and the Gibbs free energy (ΔG) were calculated. The obtained sigmoidal titration curves were evaluated assuming independent saturable binding sites in the outer vesicle interface. […]
# DOPC liposomes = test: Isothermal titration calorimetry with DOPC liposomes; format: binding; settings: 25 °C, 200 µM total lipid
# Procedure: as §3, §4
# MCF-7 cells = test: Fluorometric measurement of NMN level; format: cell-based, human; settings: 2 μM, 10 min, vs control
# Procedure: For fluorometric measurements of NMN, a previously described method was used, with minor modifications. […] The cells were washed with PBS and then lysed by adding 200 μl of 1 M HClO4 to each well and incubating at 4 °C for 20 min. The cells were harvested by scraping and transferred to a tube. The extracts were neutralized with 100 μl of 2 M KOH for 5 min at room temperature and 50 μl of 0.1 M bicine (pH 7.4) was added. The samples were centrifuged at 14 000 × g for 10 min at 4 °C, and the supernatant was collected for further analysis. The protein concentration in each sample was determined using a Bio-Rad protein assay kit. […] The reaction was incubated for 2 min at 4 °C, after which 45 μl of 88% formic acid was added, and the samples were incubated for another 10 min at 37 °C on a shaker. The fluorescence was measured using a Tecan multiplate reader Infinite 1000 (Austria) with excitation at 382 nm and emission at […].
# [3] = Cytotoxicity assay (MTT), MDCK; format: cell-based, Canine; settings: dog, MDCK cells, normal cell line, mean ± S.D., 3 experiments
# Procedure: as §1, §2
smiles,measurement,setting,value
"OC1(c2[se][n+]3ccsc3c2Br)CCCCC1 [Compound 6, 3-bromo-2-(1-hydroxycyclohexyl)[1,2]selenazolo[2,3-b]thiazolium chloride]",1H NMR resonances in the presence of CL-containing liposomes,[1],broadened
same,IC50,4T1,1.7 ± 0.2 µM
same,ITC isoselenazolium cation–CL interaction,[2],decrease in enthalpy
same,ITC binding to DOPC liposomes,DOPC liposomes,no signs of binding
same,decrease in NMN levels,MCF-7 cells,26%
same,IC50 at 48 h,[3],6.58 ± 0.33 µM
